# Values joined by “and” are separate entries in the source; they are usually repeats but may differ in a detail not shown here. Equal values may be shown once. Active and inactive are the calls of the source. The calls are words filed in the database; no cut-off is given here.
# What was measured:
# MGC-803 [1] = assay: Induction of apoptosis in human MGC-803 cells assessed as necrotic cells at 2.5 uM incubated for 48 hrs by annexin V FITC/propidium iodide staining based flow cytometry (reference value: 1.06 %); assay type: functional
# MGC-803 [2] = assay: Induction of cell cycle arrest in human MGC-803 cells assessed as reduction in accumulation of cells at G0/G1 phase at 2.5 to 10 uM incubated for 24 hrs by PI staining based flow cytometry analysis; assay type: functional; details: dose 2.5-10 µM
# HGC-27 [3] = assay: Induction of apoptosis in human HGC-27 cells assessed as upregulation in Bax expression at 0.5 to 8 uM incubated for 48 hrs by Western blot analysis; assay type: functional, cell-based; details: dose 0.5-8 µM
# HGC-27 [4] = assay: Induction of cell cycle arrest in human HGC-27 cells assessed as upregulation of p27 expression at 0.5 to 8 uM incubated for 48 hrs by Western blot analysis; assay type: functional, cell-based; details: dose 0.5-8 µM
# AGS = assay: cells; assay type: functional, cell-based; details: Homo sapiens, 72 h
# Description: Cytotoxicity against human AGS cells assessed as inhibition of cell growth incubated for 72 hrs by MTT assay
# [5] = Acute toxicity in Kunming mouse assessed as mouse survival at 1000 mg/kg, po measured after 14 days; assay type: organism-based; details: in vivo, 336 h, time 14 day
# HGC-27 [6] = assay: cells; assay type: functional, cell-based; details: Homo sapiens, HGC-27, 72 h
# Description: Cytotoxicity against human HGC-27 cells assessed as inhibition of cell growth incubated for 72 hrs by MTT assay
# HGC-27 [7] = assay: Induction of apoptosis in human HGC-27 cells assessed as necrotic cells at 0.1 uM incubated for 48 hrs by annexin V FITC/propidium iodide staining based flow cytometry (reference value: 1.24 %); assay type: functional
# HGC-27 [8] = assay: Induction of apoptosis in human HGC-27 cells assessed as necrotic cells at 1.6 uM incubated for 48 hrs by annexin V FITC/propidium iodide staining based flow cytometry (reference value: 1.24 %); assay type: functional
# MGC-803 [9] = assay: Induction of apoptosis in human MGC-803 cells assessed as late apoptotic cells at 20 uM incubated for 48 hrs by annexin V FITC/propidium iodide staining based flow cytometry (reference value: 4.07 %); assay type: functional
# HGC-27 [10] = assay: Induction of cell cycle arrest in human HGC-27 cells assessed as reduction in accumulation of cells at G0/G1 phase at 0.1 to 1.6 uM incubated for 24 hrs by PI staining based flow cytometry analysis; assay type: functional; details: dose 0.1-1.6 µM
# MGC-803 [11] = assay: Induction of cell cycle arrest in human MGC-803 cells assessed as reduction in accumulation of cells at G2/M phase at 5 to 20 uM incubated for 24 hrs by PI staining based flow cytometry analysis; assay type: functional; details: dose 5-20 µM
# HGC-27 [12] = assay: Antitumor activity against human HGC-27 cells xenografted in BALB/c mouse assessed as tumor growth inhibition at 150 mg/kg, po bid administered for 19 days; assay type: functional; details: HGC-27, 456 h, time 19 day, read-out: TGI
# [13] = Toxicity in BALB/c mouse xenografted with human HGC-27 cells assessed as granulocyte level at 150 mg/kg, po bid for 19 days; assay type: organism-based; details: in vivo, 456 h, time 19 day
# [14] = Toxicity in BALB/c mouse xenografted with human HGC-27 cells assessed as hematocrit level at 150 mg/kg, po bid for 19 days; assay type: organism-based; details: in vivo, 456 h, time 19 day
# [15] = Toxicity in BALB/c mouse xenografted with human HGC-27 cells assessed as mean corpuscular volume at 150 mg/kg, po bid for 19 days; assay type: organism-based; details: in vivo, 456 h, time 19 day
# [16] = Toxicity in BALB/c mouse xenografted with human HGC-27 cells assessed as platelet level at 150 mg/kg, po bid for 19 days; assay type: organism-based; details: in vivo, 456 h, time 19 day
# [17] = Toxicity in BALB/c mouse xenografted with human HGC-27 cells assessed as mean corpuscular volume at 75 mg/kg, po bid for 19 days; assay type: organism-based; details: in vivo, 456 h, time 19 day
# [18] = Toxicity in BALB/c mouse xenografted with human HGC-27 cells assessed as mean platelet volume at 75 mg/kg, po bid for 19 days; assay type: organism-based; details: in vivo, 456 h, time 19 day
# HGC-27 [19] = assay: Induction of apoptosis in human HGC-27 cells assessed as upregulation in cleaved caspase-3 expression at 0.1 to 1.6 uM incubated for 48 hrs by Western blot analysis; assay type: functional, cell-based; details: dose 0.1-1.6 µM
# in vitro = details: human, WI-38 cells
# Description: Cytotoxicity against human WI-38 cells assessed as inhibition of cell growth incubated for 72 hrs by MTT assay
structure (smiles),measurement,setting,value
O=C(NCc1ccc(NC(=O)c2ccccc2N2CCCC2)cc1)OCc1cccnc1,Activity,MGC-803 [1],4.32%
same,Activity,MGC-803 [2],Active
same,Activity,HGC-27 [3],Active
same,Activity,HGC-27 [4],Active
O=C(NCc1ccc(NC(=O)c2cc(F)ccc2N2CCCC2)cc1)OCc1cccnc1,IC50,AGS,23.3 µM
same,Activity,[5],Non-Toxic
same,IC50,HGC-27 [6],0.28 µM
same,Activity,HGC-27 [7],0.86%
same,Activity,HGC-27 [8],16.9%
same,Activity,MGC-803 [9],19.8%
same,Activity,HGC-27 [10],Active
same,Activity,MGC-803 [11],Active
same,inhibition in vivo at 150 mg/kg,HGC-27 [12],68.9%
same,Activity,[13],72.9 10^9/L and 90.67%
same,Activity,[14],55.38%
same,Activity,[15],49.83 fL
same,Activity,[16],1711 10^9/L
same,Activity,[17],49.83 fL
same,Activity,[18],5.6 fL
same,Activity,HGC-27 [19],Active
same,IC50 at 72 h,in vitro,> 100 µM

# Reference: ChEMBL document CHEMBL5143508, “Design, synthesis and biological evaluation of novel o-aminobenzamide derivatives as potential anti-gastric cancer agents in vitro and in vivo” (Eur J Med Chem, 2022)
